Data on two compounds can be found in US11026942B2, “Agent for preventing and/or treating Alzheimer's disease” (KYOTO UNIVERSITY, priority 2015, dated 2021).

What all share (type): cell-based, human
One assay concerns Aβ38. As to the kind of experiment: Aβ38 in FAD1 iPS cell-derived nerve cells (secondary screening). The arrangement: scale not given here. The method, then:
(§1) To further study reproducibility of the candidate drugs obtained by the primary screening, secondary screening was conducted. In addition to Aβ40, Aβ42, Aβ42/40 ratio, Aβ38, Aβ43, sAPPα, sAPPβ were also studied and each numerical value was obtained.

A further assay has as its system sAPPα. Nature of the assay: sAPPα in FAD1 iPS cell-derived nerve cells (secondary screening). The following applies: secondary screening, FAD1 iPS cell-derived nerve cells. Also noted: scale not given here. The method, then: as §1
The test system of the next assay is Aβ40. The following applies: secondary screening, FAD1 iPS cell-derived nerve cells, numerical value (Aβ change rate).
Text: To perform induction from iPS cells to the cerebral cortex nerve early and with high reproducibility, iPS cells introduced with human Neurogenin 2 gene (NGN2) linked to doxycycline-inducible promoter by using PiggyBac were used (FIG. 1a, FIG. 1b, FIG. 4a and FIG. 4b). IPS cells prepared from 4 patients with familial Alzheimer's disease (FAD), 2 patients with sporadic Alzheimer's disease (SAD) and 4 healthy individuals (HC) were used. The iPS cells were established by the method described in Okita K et al., Nature.
Structural formulas (those in the form of salt or halide are also described as free form) and the general names of the candidate compounds are shown in Table 1.
as §1

The next assay concerns sAPPβ. Nature of the assay: sAPPβ in FAD1 iPS cell-derived nerve cells (secondary screening). The conditions noted are these: secondary screening, FAD1 iPS cell-derived nerve cells. The arrangement: sAPPβ: scale not given here. As to the method: as §1
The test system of another assay is Aβ43. Nature of the assay: Aβ43 in FAD1 iPS cell-derived nerve cells (secondary screening). The arrangement: scale not given here. The method, then: as §1
Another assay has as its system Aβ42/40 ratio. Nature of the assay: Aβ42/40 ratio in FAD1 iPS cell-derived nerve cells (primary/secondary screening, dose dependency). The following applies: secondary screening. The gist of the method:
(§2)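 Cerebral cortex neurons were induced from FAD1 patient iPS cells by doxycycline-inducible NGN2, delivered by PiggyBac. Aβ40 and Aβ42 in the culture medium gave the Aβ42/40 ratio, with dose dependency examined in primary and secondary screens. The secondary screen also covered Aβ38, Aβ43, sAPPα and sAPPβ.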

The test system of another assay is Aβ42. Nature of the assay: Aβ42 in FAD1 iPS cell-derived nerve cells (primary/secondary screening, dose dependency). The conditions noted are these: secondary screening, FAD1 iPS cell-derived nerve cells, numerical value (Aβ change rate). The gist of the method:
as §2

Compound `CN[C@H](CC(C)C)C(=O)N[C@H]1C(=O)N[C@@H](CC(N)=O)C(=O)N[C@H]2C(=O)N[C@H]3C(=O)N[C@H](C(=O)N[C@H](C(=O)O)c4cc(O)cc(O)c4-c4cc3ccc4O)[C@H](O)c3ccc(c(Cl)c3)Oc3cc2cc(c3O[C@@H]2O[C@H](CO)[C@@H](O)[C@H](O)[C@H]2O[C@H]2C[C@](C)(N)[C@H](O)[C@H](C)O2)Oc2ccc(cc2Cl)[C@H]1O` [compound 105, VANCOMYCIN] showed an Aβ38 with Aβ38 of 1.29. In the assay with sAPPα, this compound displayed a sAPPα of 1.33. Further, the Aβ40 with Aβ40 was determined as 1.01. Besides, in the assay on sAPPβ, the sAPPβ was found to be 1.36. The same compound gave an Aβ43 with Aβ43 of 1.2. Besides, in the assay on Aβ42/40 ratio, the “Ratio Aβ42/40” value is recorded as 1.05. This compound had an Aβ42 in the assay on Aβ42 of 1.06.
Consider BITOSCANATE [compound 123], for which, in the assay with Aβ38, the Aβ38 is listed as 1.01. For the same compound, the sAPPα in the assay on sAPPα was found to be 0.76. For the same compound, the Aβ40 with Aβ40 was found to be 0.93. This compound also yielded a sAPPβ in the assay on sAPPβ of 0.73. This compound also yielded an Aβ43 in the assay with Aβ43 of 1. In the assay on Aβ42/40 ratio, the “Ratio Aβ42/40” value is listed as 0.96. Besides, the Aβ42 in the assay on Aβ42 came out at 0.89.
